From EP0726257A1, “1-(Hetero)Arylvinyl-5H-2,3-benzodiazepine derivatives useful for the treatment of central nervous system disorders, and benzopyrylium intermediates for their preparation” (EGIS GYOGYSZERGYAR RT., priority 1995, dated 1996)
Where two headings read alike, the source gives them in different places.

Assays:
[1] = system: convulsions caused by 6,7,8,9-tetrahydro-5H-tetrazoloazepine [pentetrazole]; test: Inhibition of pentetrazole-induced convulsions (modified method of Benziger and Hane); assay type: in vivo; details: Mus musculus, po, mice, read-out: ID50 (the source's name)
Protocol: The inhibiting effect against convulsions caused by 6,7,8,9-tetrahydro-5H-tetrazoloazepine [pentetrazole] was defined by the modified method of Benziger and Hane. Groups of male and female mice belonging to the NMRI strain and weighing 20 to 25 g were used. The tonic extensor convulsions of the hind limbs caused by intraperitoneally administered 125 mg/kg of 6,7,8,9-tetrahydro-5H-tetrazoloazepine [pentetrazole] were registered on the animals of groups consisting of 6 to 12 animals. The test compounds and the carrier were administered 1 hour before administering the 6,7,8,9-tetrahydro-5H-tetrazoloazepine [pentetrazole] (Benziger, R., Hane, D.: Arch. Int. Pharmacodyn. 167, 245 [1967]).

rats [2] = test: Lick-conflict test (Vogel et al.), anxiolytic activity; assay type: in vivo; details: Rattus norvegicus, po, read-out: Minimal effective dose [MED] Lick conflict
Text: (§1) The anxiolytic activity was studied in rats according to the "lick-conflict" test elaborated by Vogel et al. (Psychopharmacology, 21, 1, [1971] and the elevated plus-maze test described by Pellow (Pellow, J.: Neurosci. Meth. 14, 149, [1985]). The antiaggressive effect was investigated in mice using the "fighting behaviour" method of Tedeschi (J. Pharm. Exp. Ther., 125, 28, [1959]). The minimal effective dose (MED) values and the ED50 values obtained are shown in the following Table V.

Catalepsy in mice = test: Cataleptic effect in mice (Schlichtegroll); assay type: in vivo; details: p.o.
Protocol: (§2) The cataleptic effect of the compounds was measured both in mice (Schlichtegroll: Arzneim. Forsch., 8, 489, [1958]) and in rats (Morpurgo: Arch. Int. Pharmacodyn., 137, 87, [1962]).

[3] = system: "climbing" reaction induced by 5,6,6a,7-tetra-(hydro)-6-(methyl)-4H-dibenzo[de,g]quinoline-10,11-di-(ol){apomorphine}; test: Inhibition of apomorphine-induced climbing according to Puech et al.; assay type: in vivo
Protocol: (§3) The potential antipsychotic activity of 1-[2'-(substituted) vinyl]-5H-2,3-benzodiazepine derivatives according to the invention and of reference substances was tested according to the method of Puech et al. (Psychopharmacology, 75, 84, [1981] by measuring their inhibiting effect on the "climbing" reaction induced by 5,6,6a,7-tetra-(hydro)-6-(methyl)-4H-dibenzo[de,g]quinoline-10,11-di-(ol){apomorphine}. The results have been expressed as ED50 values. Since the inhibition of the spontaneous motor activity (SMA) is an important characteristic of the antipsychotic drugs, the ED50 values of a number of compounds were determined according to the method of Borsy et al. (Arch. Int. Pharmacodyn., 124, 1, 196).

mice [4] = test: Fighting behaviour method of Tedeschi, antiaggressive effect; assay type: in vivo; details: Mus musculus, po, read-out: ED50 Fighting behaviour
Text: as §1

Catalepsy in rats = test: Cataleptic effect in rats (Morpurgo); assay type: in vivo; details: p.o.
Protocol: as §2

mice [5] = test: Acute toxicity (dead/treated animals) in the Irwin test; assay type: in vivo
Protocol: (§4) The behavioural effects of 1-[2'-(substituted) vinyl]-5H-2,3-benzodiazepine derivatives according to the invention and of reference substances were measured according to the method of Irwin (Psychopharmacology, 13, 222 [1968]). The results and the acute toxicity data (dead/treated animals, shown in brackets) can be seen in the following Table II
(§5) From the above Table II it can be taken that the 1-[2'-(substituted) vinyl]-5H-2,3-benzodiazepine derivatives according to the invention considerably decrease the spontaneous motor activity (SMA) in mice after intraperitoneal or oral administration.

[6] = system: spontaneous motor activity of mice; test: Inhibition of spontaneous motor activity according to Borsy et al.; assay type: in vivo
Protocol: as §3
The effect of the 1-[2'-(substituted) vinyl]-5H-2,3-benzodiazepine derivatives according to the invention on the spontaneous motor activity was tested according to the method of Borsy et al. Groups consisting of 3 mice were treated orally with different doses of the compounds to be tested. Then the animals were placed into a 10-channel Dews system equipment, wherein the number of interruptions of infrared beam within 30 minutes was counted. […]

[7] = system: spontaneous motor activity (SMA) in mice; test: Behavioural effects according to Irwin (decrease in spontaneous motor activity); assay type: in vivo
Protocol: as §4, §5

rats [8] = test: Elevated plus-maze test (Pellow), anxiolytic activity; assay type: in vivo; details: Rattus norvegicus, ip, read-out: Minimal effective dose [MED] Elevated + Maze
Text: as §1
The anxiolytic activity of these compounds was investigated in the elevated plus maze test. Male rats belonging to the Sprague Dawley strain and weighing 220 to 260 g were used as test animals. The test was carried out with the aid of a wooden plus-shaped maze elevated to a height of 50 cm and containing two enclosed and two open arms (50 cm long and 15 cm wide). After 60 minutes pretreatment the animals were placed into the maze and observed for 5 minutes. The drug effect was expressed as percent increase of the time spent on the open arms and number of open arm entries. The minimum effective dose (MED) which caused a significant increase of the time spent on the open arms was calculated for every substance [Pelow, S., Chopin, P., File, S.E., Briley, M.: J. Neurosci. Methods 14, 149 to 167 [1985]).

[9] = molecular target: homophthalazine binding site; test: Displacement of 3H-girisopam from the homophthalazine binding site in rat brain striatal membrane preparation; details: displacing 5 nM 3H-girisopam
Protocol: Ki values were calculated according to the following equation: Ki = IC50 :(1 +([L])/(KD)), [formula] wherein KD is the dissociation constant of the labelled ligand-receptor complex, [L] is the concentration of the labelled ligand and IC50 is the half maximal inhibitory concentration of the test compound.

[10] = Cataleptic effect in mice (Schlichtegroll); assay type: in vivo; details: mouse, in vivo, Tables III and IV compared, read-out: dose causing catalepsy on mice relative to the spontaneous motor activity (SMA) decreasing ED50 dose
Protocol: as §2

[11] = po, read-out: {apomorphine} Climbing ED50
[12] = Mus musculus, po, read-out: Spontaneous motor activity SMA ED50

| SMILES | ED50 [1] | minimal effective dose (rats [2]) | Catalepsy in mice Minimal effective dose [MED] (Catalepsy in mice) | ED50 [3, 11] | ED50 (mice [4]) | Catalepsy in rats Minimal effective dose [MED] (Catalepsy in rats) | acute toxicity (dead/treated animals) (mice [5]; 300 mg/kg i.p.) | ED50 [6, 12] | Behaviour ([7]; 300 mg/kg i.p.) | minimal effective dose (rats [8]) | minimal effective dose (rats [2]; rats) | Ki [9] | ED50 ([3]; po; read-out: {apomorphine} Climbing ED50) | ED50 (mice [4]; mice) | acute toxicity (dead/treated animals) (mice [5]; 1000 mg/kg p.o.) | ED50 ([6]; Mus musculus, po; read-out: Spontaneous motor activity SMA ED50) | Behaviour ([7]; 1000 mg/kg p.o.) | minimal effective dose (rats [8]; rats) | selectivity ratio [10] |
| --- | --- | --- | --- | --- | --- | --- | --- | --- | --- | --- | --- | --- | --- | --- | --- | --- | --- | --- | --- |
| NC(=O)N1c2ccccc2C=Cc2ccccc21 [carbamazepine, 5H-dibenz[b,f]azepine-5-carboxamide] | 7.1 mg/kg |  |  |  |  |  |  |  |  |  |  |  |  |  |  |  |  |  |  |
| COc1cc2c(cc1OC)C(c1ccc(N)cc1)=NN=C(C)C2 [nerisopam, 1-(4'-〈amino〉-phenyl)-4-(methyl)-7,8-di-(methoxy)-5H-2,3-benzodiazepine, reference compound] |  | 0.3 mg/kg | 40 mg/kg | 0.9 mg/kg | 4 mg/kg | 60 mg/kg | 5/6 | 2.5 mg/kg | + + | 0.3 mg/kg |  |  |  |  |  |  |  |  |  |
| COc1cc2c(cc1OC)C(C=Cc1ccc(N(C)C)cc1)=NN=C(C)C2 [Example 4, 1-[4'-(Dimethylamino)-styryl)-4-[methyl]-7,8-di-[methoxy]-5H-2,3-benzodiazepine] |  |  | >100 mg/kg |  |  | >100 mg/kg | 1/5 |  | + + |  | 0.3 mg/kg | 11 nM | 9.1 mg/kg | 7.4 mg/kg | 1/5 | 4.1 mg/kg | + + | 5 mg/kg |  |
| CN(C)CCCN1c2ccccc2Sc2ccc(Cl)cc21 [chlorpromazine, 2-(chloro)-10-(3'-〈dimethylamino〉-propyl)-phenothiazine, reference compound] |  |  | 10 mg/kg | 1.1 mg/kg |  | 20 mg/kg |  | 2 mg/kg |  |  |  |  |  |  |  |  |  |  | 5 |
